Where a SMILES comes first, the peptide text is derived from it. The star is where a group is joined. Cbz = O=C(OCc1ccccc1)*
Assays:
Human Leukocyte Elastase = target: T1, Human Leukocyte Elastase (Homo sapiens, UniProt P08246); test: Kinetic assay: inhibition of Human Leukocyte Elastase; type: biochemical; settings: Table V
T1 sequence (P08246 30-267): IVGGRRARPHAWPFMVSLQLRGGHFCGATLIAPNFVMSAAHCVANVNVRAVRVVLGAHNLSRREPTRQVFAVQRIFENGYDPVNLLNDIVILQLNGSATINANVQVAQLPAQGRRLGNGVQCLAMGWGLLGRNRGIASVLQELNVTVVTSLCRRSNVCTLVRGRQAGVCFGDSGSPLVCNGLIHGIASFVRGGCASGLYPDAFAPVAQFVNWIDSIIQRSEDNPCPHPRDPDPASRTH

[1] = target: SDS-activated 20S proteasome from rabbit muscle (Oryctolagus cuniculus, UniProt G1SU71+G1T4Q9); test: Kinetic assay: inhibition of the 20S proteasome; type: biochemical
Description: (§1) P, AA^1, AA^2, AA^3, and Z^1 and Z^2 represent the structures present on formula (1) or (2). The protocol for the kinetic assay described in Tables II-V is as described in Rock et al., Cell 78:761-771 (1994). In these tables, Ki values are reported, which are dissociation constants for the equilibrium that is established when enzyme and inhibitor interact to form the enzyme:inhibitor complex. The reactions were performed using SDS-activated 20S proteasome from rabbit muscle. The substrate used was Suc-LLVY-AMC.

Cathepsin B = Cathepsin B (Homo sapiens, UniProt P07858); test: Kinetic assay: inhibition of Cathepsin B; type: biochemical; settings: Table IV
Description: [Worded in the source for another target; this target is reported under the same test.] as §1, with “Table II summarizes results from kinetic experiments that measured the inhibition of the 20S proteasome by compounds having the formula of compound (1) or (2). P,” for “P,”

[2] = target: Human Pancreatic Chymotrypsin; test: Kinetic assay: inhibition of Human Pancreatic Chymotrypsin; type: biochemical; settings: Table V
C2C12 cells = test: Inhibition of protein degradation in C2C12 cells; type: cell-based, mouse; settings: Mus musculus, C2C12; 35S-methionine labelled cells; percent decrease in TCA soluble radioactivity; media with 50% serum
Description: One approach to testing drug candidates for their ability to inhibit the ATP-ubiquitin-dependent degradative process is to measure proteolysis in cultured cells (Rock, et al., Cell 78:761 (1994)). For example, the degradation of long-lived intracellular proteins can be measured in mouse C2C12 myoblast cells. Cells are incubated with ^35S-methionine for 48 hours to label long-lived proteins and then chased for 2 hours with medium containing unlabeled methionine. After the chase period, the cells are incubated for 4 hours in the presence or absence of the test compound. The amount of protein degradation in the cell can be measured by quantitating the trichloroacetic acid soluble radioactivity released from the pre-labeled proteins into the growth medium (an indicator of intracellular proteolysis).
C2C12 cells (a mouse myoblast line) were labelled for 48 hrs with ^35S-methionine. The cells were then washed and preincubated for 2 hrs in the same media supplemented with 2 mM unlabelled methionine. The media was removed and replaced with a fresh aliquot of the preincubation media containing 50% serum, and a concentration of the compound to be tested. The media was then removed and made up to 10% TCA and centrifuged. The TCA soluble radioactivity was counted. Inhibition of proteolysis was calculated as the percent decrease in TCA soluble radioactivity.

Cathepsin G = target: T2, Cathepsin G (Homo sapiens, UniProt P08311); test: Kinetic assay: inhibition of Cathepsin G; type: biochemical; settings: Table V
T2 sequence (P08311 21-244): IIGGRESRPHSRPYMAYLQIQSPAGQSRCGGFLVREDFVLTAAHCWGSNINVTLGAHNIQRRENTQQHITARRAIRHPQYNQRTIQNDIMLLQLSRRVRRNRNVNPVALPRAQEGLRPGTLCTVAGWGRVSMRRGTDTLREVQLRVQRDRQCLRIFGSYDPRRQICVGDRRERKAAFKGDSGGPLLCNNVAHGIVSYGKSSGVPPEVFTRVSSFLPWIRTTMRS

mice = test: DTH response (contact sensitivity, ear swelling) in mice; type: in vivo, mouse; settings: oral, dose 50 mg/kg, ear swelling approximately 18 hours after challenge
Description: Compounds can also be tested for their ability to inhibit a delayed-type hypersensitivity response in mice. Contact hypersensitivity is a manifestation of an in vivo T-cell mediated immune response (Friedmann, Curr. Opinion Immunology, 1:690693 (1989)). Although the exact molecular mechanisms that regulate the cellular interactions and vascular changes involved in the response remain obscure, it is clear that the process is dependent upon the interplay of soluble mediators, adhesion molecules, and the cytokine network (Piguet, et al., J. Exp. Med. 173:673-679 (1991); Nickoloff, et al. J. Invest. Dermatol. 94:151S-157S (1990)). NF-κB, by mediating events such as the production of cytokines and the induction and utilization of cell-surface adhesion molecules, is a central and coordinating regulator involved in immune responses.
Naive nice were sensitized by the application of 20 μL of a 0.5% (v/v) solution of 2,4-dinitrofluorobenzene in 4:1 acetone/olive oil to both of the rear limb footpads. This procedure is performed on two consecutive days, which are referred to as days 0 and 1.
The efferent phase of the contact sensitivity response was elicited on day 5 by the application of 10 μL of a 0.2% (v/v) solution of 2,4-dinitrofluorobenzene in 4:1 acetone/olive oil to both sides of the left ear. The contralateral control ear was treated on both sides with 10 μL of vehicle only. The mice were lightly anaesthetized for this procedure by the intraperitoneal (i.p.) injection of a mixture of ketamine.(80 mg/kg, Henry Schein) and xylazine (16 mg/kg, Henry Schein). […]
Approximately 18 hours after the challenge, ear swelling was determined by measuring both the control and the experimental ear using a Mitutoyo Digital micrometer. The absolute difference in thickness of the experimental (left) ears vs. the control (right) ears was determined for each treatment group. Efficacy was determined by comparing this difference in thickness to the difference calculated for the vehicle control group.

NF-κB = test: Activation of NF-κB, electrophoretic mobility shift assay in TNF-α stimulated MG63 osteosarcoma cells; type: cell-based; settings: pretreatment for 1 hour, PRDII probe, FIG. 2
Description: Compounds can be tested for their ability to inhibit the activation of NF-κB by means of a DNA binding assay (Palombella, et al., Cell 78:773 (1994)). Whole-cell extracts are prepared from untreated or TNF-α treated cells that have been pretreated for 1 hour with the test compound. The DNA binding activity of NF-κB is measured by an electrophoretic mobility shift assay using the PRDII probe from the human IFN-β gene promoter.
This assay was performed as previously described (Palombella, et al. Cell, 78:773-785 (1994)). MG63 osteosarcoma cells were stimulated by treatment with TNF-α for the designated times. Whole cell extracts were prepared and analyzed by electrophoretic mobility shift assay using the PRDII probe from the human IFN-β gene promoter.

[3] = Table II, SDS-activated 20S proteasome from rabbit muscle, substrate Suc-LLVY-AMC

Structure (SMILES)	Ki (Human Leukocyte Elastase) [nM]	Ki [1, 3] [nM]	Ki ([1]; Table IV) [nM]	Ki ([1]; Table V) [nM]	Ki (Cathepsin B) [nM]	Ki [2] [nM]	IC50 (C2C12 cells) [nM]	Ki (Cathepsin G) [nM]	% Inhibition of the DTH response (mice) [%]	NF-κB binding activity (NF-κB)	activity against the 20S proteasome [1]
CC(C)C[C@H](NC(=O)[C@H](CC(C)C)NC(=O)[C@H](CC(C)C)NC(=O)OCc1ccccc1)B(O)O [MG-262]	15	0.035	0.035	0.03	6100	7	280	55	–	–	–
CC(C)C[C@H](NC(=O)[C@H](Cc1cccc2ccccc12)NC(=O)OCc1ccccc1)B1O[C@@H]2C[C@@H]3C[C@@H](C3(C)C)[C@]2(C)O1 [MG-267]	150	0.1	–	0.1	–	2300	–	33000	–	–	–
CC(C)C[C@H](NC(=O)[C@H](Cc1cccc2ccccc12)NS(=O)(=O)c1cccc2cccnc12)B(O)O [MG-296, N-(8-quinoline)sulfonyl-β-(1-naphthyl)-L-alanine-L-leucine boronic acid]	36	1.7	1.7	1.7	4000	–	738	9200	60	–	–
CC(C)C[C@@H](C=O)NC(=O)[C@H](CC(C)C)NC(=O)[C@H](CC(C)C)NC(=O)OCc1ccccc1 [MG-132, Cbz-L-Leu-L-Leu-L-Leu-H] (Cbz-Leu-Leu-Leu-aldehyde)	–	–	–	–	–	–	–	–	–	inhibited	–
CSCCC(C=O)NC(=O)C(CC(C)C)NC(=O)C(CC(C)C)NC(C)=O [MG-102, Ac-L-Leu-L-Leu-L-Met-H, reference compound] (Ac-Leu-Leu-Met-aldehyde; configuration not given here)	–	–	–	–	–	–	–	–	–	did not inhibit	inactive

From patent US6465433B1, “Boronic ester and acid compounds, synthesis and uses” (Millennium Pharmaceuticals, Inc., priority 1994, dated 2002)
